Reference: EP2794556B1, “BIS-(ARYL/HETEROARYL)-METHYLENE COMPOUNDS, PHARMACEUTICAL COMPOSITIONS CONTAINING SAME AND THEIR USE FOR TREATING CANCER” (Gleason, James L., priority 2011, dated 2013)

Experiments:
[1] = tested on: ACHN; experiment: NCI 60 cell panel
[2] = tested on: SNB-75; experiment: NCI 60 cell panel
[3] = tested on: EKVX; experiment: NCI 60 cell panel
[4] = tested on: AT84 cells; experiment: EdU cell growth assay; settings: AT84 cells
Description: EdU cell growth assay. Click-iT EdU Alexa Fluor high-throughput imaging (HCS) assay for cell proliferation. HCS assays were performed on AT84 mouse squamous carcinoma cell line (ATCC) following the manufacturer's instruction (Molecular Probes, Invitrogen). […] All samples were in triplicate.

[5] = tested on: SK-OV-3; experiment: NCI 60 cell panel
[6] = tested on: HS 578T; experiment: NCI 60 cell panel
[7] = tested on: COLO 205; experiment: NCI 60 cell panel
[8] = tested on: NCI/ADR-RES; experiment: NCI 60 cell panel
[9] = tested on: M14; experiment: NCI 60 cell panel
[10] = tested on: A498; experiment: NCI 60 cell panel
[11] = tested on: MDA-MB-435; experiment: NCI 60 cell panel
[12] = tested on: IGROVI; experiment: NCI 60 cell panel
[13] = tested on: CAKI-1; experiment: NCI 60 cell panel
[14] = tested on: NCI-H522; experiment: NCI 60 cell panel
[15] = tested on: OVCAR-3; experiment: NCI 60 cell panel
[16] = tested on: A549/A/TCC; experiment: NCI 60 cell panel
[17] = tested on: LOX IMVI; experiment: NCI 60 cell panel
[18] = tested on: MALME-3M; experiment: NCI 60 cell panel
[19] = tested on: 786-0; experiment: NCI 60 cell panel
[20] = tested on: MDA-MB-231/ATCC; experiment: NCI 60 cell panel
[21] = tested on: DU-145; experiment: NCI 60 cell panel
[22] = tested on: HOP-92; experiment: NCI 60 cell panel
[23] = tested on: SK-MEL-28; experiment: NCI 60 cell panel
[24] = tested on: UACC-257; experiment: NCI 60 cell panel
[25] = tested on: HL-60(TB); experiment: NCI 60 cell panel
[26] = tested on: HT29; experiment: NCI 60 cell panel
[27] = tested on: SR; experiment: NCI 60 cell panel
[28] = tested on: HCT-15; experiment: NCI 60 cell panel
[29] = tested on: SF-539; experiment: NCI 60 cell panel
[30] = tested on: SK-MEL-5; experiment: NCI 60 cell panel

SMILES: CCC(CC)(c1ccc(OCC(=O)NO)c(C)c1)c1ccc(OCC(O)C(C)(C)C)c(C)c1 (racemic) [JF-B01, N-Hydroxy-2-(4-(3-(4-(2-hydroxy-3,3-dimethylbutoxy)-3-methylphenyl)pentan-3-yl)-2-methylphenoxy)acetamide]
- GI50 ([1]; Homo sapiens): 3.2 µM
- CC50 ([1]; Homo sapiens, read-out: LC50): 35.6 µM
- TGI ([1]; Renal Cancer): 1.27E-5
- TGI ([2]; CNS Cancer, SNB-75): 1.90E-5
- GI50 ([2]; Homo sapiens, SNB-75): 0.0482 µM
- CC50 ([2]; Homo sapiens, SNB-75, read-out: LC50): 62 µM
- GI50 ([3]; Homo sapiens): 2.87 µM
- CC50 ([3]; Homo sapiens, read-out: LC50): 35.3 µM
- TGI ([3]; Non-Small Cell Lung Cancer): 1.24E-5
- antiproliferative potency, fold less potent than 1,25D [4]: 10 fold
- GI50 ([5]; Homo sapiens, SK-OV-3): 12.2 µM
- CC50 ([5]; Homo sapiens, SK-OV-3, read-out: LC50): 49.6 µM
- TGI ([5]; Ovarian Cancer, SK-OV-3): 2.46E-5
- TGI ([6]; Breast Cancer, HS 578T): 2.65E-5
- GI50 ([6]; Homo sapiens, Hs-578T): 8.8 µM
- CC50 ([6]; Homo sapiens, Hs-578T, read-out: LC50): 72.5 µM
- TGI ([7]; Colon Cancer, COLO 205): 5.94E-6
- GI50 ([7]; Homo sapiens, COLO 205): 2.33 µM
- CC50 ([7]; Homo sapiens, COLO 205, read-out: LC50): 20.3 µM
- GI50 ([8]; Homo sapiens): 4.39 µM
- CC50 ([8]; Homo sapiens, read-out: LC50): 41.9 µM
- TGI ([8]; Ovarian Cancer): 1.67E-5
- GI50 ([9]; Homo sapiens, M14): 2.3 µM
- CC50 ([9]; Homo sapiens, M14, read-out: LC50): 16.5 µM
- TGI ([9]; Melanoma, M14): 5.33E-6
- GI50 ([10]; Homo sapiens, A498): 4.56 µM
- CC50 ([10]; Homo sapiens, A498, read-out: LC50): 45.6 µM
- TGI ([10]; Renal Cancer, A498): 2.08E-5
- GI50 ([11]; Homo sapiens, MDA-MB-435): 2.08 µM
- CC50 ([11]; Homo sapiens, MDA-MB-435, read-out: LC50): 16.7 µM
- TGI ([11]; Melanoma, MDA-MB-435): 5.20E-6
- GI50 ([12]; Homo sapiens): 2.08 µM
- CC50 ([12]; Homo sapiens, read-out: LC50): 19.2 µM
- TGI ([12]; Ovarian Cancer, IGROVI): 5.25E-6
- GI50 ([13]; Homo sapiens, CAKI-1): 4.98 µM
- CC50 ([13]; Homo sapiens, CAKI-1, read-out: LC50): 41.3 µM
- TGI ([13]; Renal Cancer, CAKI-1): 1.71E-5
- GI50 ([14]; Homo sapiens, NCI-H522): 0.196 µM
- CC50 ([14]; Homo sapiens, NCI-H522, read-out: LC50): 19.5 µM
- TGI ([14]; Non-Small Cell Lung Cancer, NCI-H522): 5.18E-7
- GI50 ([15]; Homo sapiens, OVCAR-3): 1.73 µM
- CC50 ([15]; Homo sapiens, OVCAR-3, read-out: LC50): 21.6 µM
- TGI ([15]; Ovarian Cancer, OVCAR-3): 5.59E-6
- GI50 ([16]; Homo sapiens, A549): 3.62 µM
- CC50 ([16]; Homo sapiens, A549, read-out: LC50): 40.8 µM
- TGI ([16]; Non-Small Cell Lung Cancer, A549/A/TCC): 1.43E-5
- GI50 ([17]; Homo sapiens): 0.183 µM
- CC50 ([17]; Homo sapiens, read-out: LC50): 0.602 µM
- TGI ([17]; Melanoma): 3.32E-7
- GI50 ([18]; Homo sapiens, Malme-3M): 2.33 µM
- CC50 ([18]; Homo sapiens, Malme-3M, read-out: LC50): 35.7 µM
- TGI ([18]; Melanoma, MALME-3M): 1.07E-5
- GI50 ([19]; Homo sapiens, 786-0): 11.3 µM
- CC50 ([19]; Homo sapiens, 786-0, read-out: LC50): 51.3 µM
- TGI ([19]; Renal Cancer, 786-0): 2.41E-5
- TGI ([20]; Breast Cancer, MDA-MB-231/ATCC): 8.45E-6
- GI50 ([20]; Homo sapiens, MDA-MB-231): 2.18 µM
- CC50 ([20]; Homo sapiens, MDA-MB-231, read-out: LC50): 31.6 µM
- GI50 ([21]; Homo sapiens, DU-145): 13 µM
- CC50 ([21]; Homo sapiens, DU-145, read-out: LC50): 50.6 µM
- TGI ([21]; Prostate Cancer, DU-145): 2.56E-5
- GI50 ([22]; Homo sapiens, HOP-92): 3.08 µM
- CC50 ([22]; Homo sapiens, HOP-92, read-out: LC50): 49.2 µM
- TGI ([22]; Non-Small Cell Lung Cancer, HOP-92): 1.53E-5
- GI50 ([23]; Homo sapiens, SK-MEL-28): 4.75 µM
- CC50 ([23]; Homo sapiens, SK-MEL-28, read-out: LC50): 42.5 µM
- TGI ([23]; Melanoma, SK-MEL-28): 1.75E-5
- GI50 ([24]; Homo sapiens, UACC-257): 3.34 µM
- CC50 ([24]; Homo sapiens, UACC-257, read-out: LC50): 38.8 µM
- TGI ([24]; Melanoma, UACC-257): 1.27E-5
- GI50 ([25]; Homo sapiens, HL-60): 0.944 µM
- CC50 ([25]; Homo sapiens, HL-60, read-out: LC50): 8.8 µM
- TGI ([25]; Leukemia, HL-60(TB)): 2.93E-6
- TGI ([26]; Colon Cancer, HT29): 1.00E-5
- GI50 ([26]; Homo sapiens, HT-29): 1.93 µM
- CC50 ([26]; Homo sapiens, HT-29, read-out: LC50): 31.7 µM
- GI50 ([27]; Homo sapiens): 1.21 µM
- CC50 ([27]; Homo sapiens, read-out: LC50): 24.9 µM
- TGI ([27]; Leukemia): 3.91E-6
- TGI ([28]; Colon Cancer, HCT-15): 1.12E-5
- GI50 ([28]; Homo sapiens, HCT-15): 1.94 µM
- CC50 ([28]; Homo sapiens, HCT-15, read-out: LC50): 33.6 µM
- TGI ([29]; CNS Cancer, SF-539): 2.74E-5
- GI50 ([29]; Homo sapiens, SF-539): 13.7 µM
- CC50 ([29]; Homo sapiens, SF-539, read-out: LC50): 54.9 µM
- GI50 ([30]; Homo sapiens, SK-MEL-5): 1.39 µM
- CC50 ([30]; Homo sapiens, SK-MEL-5, read-out: LC50): 5.58 µM
- TGI ([30]; Melanoma, SK-MEL-5): 2.79E-6
